In patent publication US8465758B2, “Drug delivery from stents” (Abbott Laboratories, priority 2001, dated 2013):

How the values were obtained:
[1] = Solubility of batimastat in ethanol (100%); format: physicochemical
Description: This was by preparation of a series of solutions outlined in Table 1

[2] = Batimastat elution from stents in PBS, non flow system; format: physicochemical; settings: coated stents loaded from methanol, after 1 hour, based on total amount loaded
Method: Elution studies were carried out at 25° C. for up to 1 hour in gently agitated PBS. […] At various time intervals a I ml aliquot was removed and replaced with 1 ml fresh PBS. The stents and water aliquots were measured, see section 1.1.4, to give the amount of drug eluted and the amount of drug remaining on the stents, see section 1.2.1 for results. Samples of eluent from elution studies were injected directly into the system. The sensitivity of the method was 0.010 ppm (0.010 μg/ml).

[3] = test system: coronary arteries of farm swine; experiment: Re-endothelialisation of batimastat-loaded BiodivYsio stents (SEM); format: in vivo; settings: 5 days
Description: BiodivYsio stents (control, low dose batimastat and high dose batimastat) were implanted into healthy farm swine. After 5 days the animals were sacrificed and the stents studied for endothelialisation using scanning electron microscopy.
The stents were implanted into the coronary arteries of farm swine (2 per animal, each in different arteries). After sacrifice, the vessels were excised and trimmed of all extraneous tissue, washed in buffer, and fixed in 2.5% glutaraldehyde at pH 7.4. Fixation was carried out for a minimum of 24-48 hours in 2.5% glutaraldehyde. The section of artery was rinsed in 0.1M cacodylate buffer pH 7.4. The arteries were shipped in 0.1M cacodylate buffer pH 7. The vessels were required to be left whole, i.e. without longitudinal transection. A small V was marked in the proximal end of the vessel to determine vessel orientation. SEM analysis was carried out on three sections of the stented artery and at 2 different magnifications (high and low). The analysis concentrated on the rate and extent of re-endothelisation of the stent struts and the presence of any cellular/biological debris within the stented segment of artery.

[4] = Pharmacokinetic study, 14C batimastat-loaded BiodivYsio stents in iliac arteries; format: in vivo, New Zealand white rabbit; settings: rabbit iliac arteries, 28 days post-implantation
Description: The pharmacokinetic studies were initiated to investigate the deposition of drug from the batimastat-loaded BiodivYsio stent.

farm swine = experiment: One-month pre-clinical assessment (QCA, histomorphometry, histology); format: in vivo; settings: low dose 0.30 μg per mm^2 of stent, 1 month, control 4.0
Description: A total of 24 stents were implanted in 12 farm swine pigs for 1 month. […] The higher dose was set at the maximum quantity that could be loaded onto the stent.

Yucatan minipigs = experiment: 3-month pre-clinical evaluation (QCA stenosis); format: in vivo; settings: 3 months, not statistically significant (p=0.15)
Description: After 3 months a trend in favour of the treatment groups was found, with an indication of a dose-response relationship shown in FIG. 5. The stenosis was reduced by 20% and 34% in the low and high dose groups respectively compared to the control.

[5] = P is the partition coefficient; cited from earlier work

| SMILES | Solubility ([1]; 1.05 mg per ml batimastat in ethanol (100%)) | Solubility ([1]; 1.13 mg per ml batimastat in ethanol (100%)) | Solubility ([1]; 2.6 mg per ml batimastat in ethanol (100%)) | Batimastat remaining on the stents [2] [%] | Effect on endothelialisation process in-vivo ([3]; high dose 115.3±16.1 μg per 15 mm stent) | Effect on endothelialisation process in-vivo ([3]; low dose 34.2±1.6 μg per 15 mm stent) | Loaded drug eluted from stent [4] [%] | Intimal area (farm swine) | Reduction of stenosis compared to the control (QCA) (Yucatan minipigs; high dose 0.30±0.13 μg per mm^2 of stent) [%] | Reduction of stenosis compared to the control (QCA) (Yucatan minipigs; low dose 0.03±0.01 μg per mm^2 of stent) [%] | log P [5] |
| --- | --- | --- | --- | --- | --- | --- | --- | --- | --- | --- | --- |
| CNC(=O)[C@H](Cc1ccccc1)NC(=O)[C@H](CC(C)C)[C@H](CSc1cccs1)C(=O)NO (relative stereo) [batimastat, (2R-(1(S*),2R*,3S*))—N4-hydroxy-N1-(2-(methylamino)-2-oxo-1-(phenylmethypethyl)-2-(2-methylpropyl)-3-((thienylthio)methyl)butanediamide] | clear suspension | fine suspension | white suspension | 44 | did not affect the endothelialisation process | did not affect the endothelialisation process | ~95 | 2.5 | 34 | 20 | – |
| C[C@@H]1C[C@H]2[C@@H]3CCC4=CC(=O)C=C[C@]4(C)[C@@]3(F)[C@@H](O)C[C@]2(C)[C@@]1(O)C(=O)CO [dexamethasone] | – | – | – | – | – | – | – | – | – | – | 2.55 |
